Measured values published in article PMC11370402 (bioRxiv, 2024).

System: human tracheobronchial epithelial cells (hTECs) basal-ESC growth
Test: hTEC growth in submerged 2D culture
Format: cell-based

For O=c1ncn2nc(Sc3ccc(F)cc3F)ccc2c1-c1c(Cl)cccc1Cl [NuP-401, VX-745], the “effect on basal cell growth” value was “not found”.
